Results on 1 cell line are retold here after the supplement of paper PMC10307832.

Holding throughout (experiment): relative viability (nuclei count vs DMSO), 5 days (fraction); higher = more cells survive
Compound in experiment [1]: C1=CC=C(C(=C1)C2=CC=C(C=C2)C3=CSC4=C3C(=C(C(=O)N4)C#N)O)O + N=C(N)NC(=N)NCCc1ccccc1 [Phenformin] (partner 250 µM)
A digest of the protocol:
(§1)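 For relative viability, nuclei counts in treated wells were divided by those in vehicle wells. Lung cancer cell lines had been pin-tool dosed in 1536-well plates the day after seeding and cultured for 5 days, then fixed and stained in one step (final 0.05% Triton X-100, 1% formaldehyde, 1 ug/ml Hoechst) and imaged at 4×. Doses were one drug alone or a fixed anchor-drug dose plus five library-drug doses (not always all listed) in √10 steps, and values are duplicate-plate medians.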

Compound in experiment [2]: C1=CC=C(C(=C1)C2=CC=C(C=C2)C3=CSC4=C3C(=C(C(=O)N4)C#N)O)O + Nc1ncn([C@H]2C[C@H](O)[C@@H](CO)O2)c(=O)n1 [Decitabine] (partner 2 µM)
A digest of the protocol:
as §1

Compound in experiment [3]: O=C(CCCCCCNC(=O)c1cnc(N(c2ccccc2)c2ccccc2)nc1)NO [Ricolinostat] + N=C(N)NC(=N)NCCc1ccccc1 [Phenformin] (partner 250 µM)
A digest of the protocol:
as §1

Compound in experiment [4]: O=C(CCCCCCNC(=O)c1cnc(N(c2ccccc2)c2ccccc2)nc1)NO [Ricolinostat] + Nc1nc2[nH]cc(CCc3ccc(C(=O)N[C@@H](CCC(=O)O)C(=O)O)cc3)c2c(=O)[nH]1 [Pemetrexed] (partner 0.2 µM)
In outline: as §1

With NCI-H1792, the relative viability in experiment [1] (first compound 0.08 µM) is 0.113; in experiment [1] (first compound 0.253 µM), 0.283; in experiment [1] (first compound 0.8 µM), 0.287; in experiment [1] (first compound 2.53 µM) it was 0.36; in experiment [1] (first compound 8 µM) it was 0.268; in experiment [2] (first compound 0.253 µM), 0.715. For the same cell line, the relative viability in experiment [2] (first compound 0.8 µM) was determined as 0.482; in experiment [2] (first compound 2.53 µM), 0.617; in experiment [2] (first compound 8 µM), 0.438; in experiment [3] (first compound 0.08 µM), 0.29; in experiment [3] (first compound 0.253 µM), 0.233; in experiment [3] (first compound 0.8 µM), 0.178. For the same cell line, the relative viability in experiment [3] (first compound 2.53 µM) was found to be 0.245; in experiment [4] (first compound 0.253 µM) it was 0.92; in experiment [4] (first compound 0.8 µM), 0.59; in experiment [4] (first compound 2.53 µM), 0.415.
